pEC50: −log10 of the molar value. Bounds are passed on as bounds.

REV-ERBα LBD, sequence (P20393 with tags, fused parts or gaps DEL324-422): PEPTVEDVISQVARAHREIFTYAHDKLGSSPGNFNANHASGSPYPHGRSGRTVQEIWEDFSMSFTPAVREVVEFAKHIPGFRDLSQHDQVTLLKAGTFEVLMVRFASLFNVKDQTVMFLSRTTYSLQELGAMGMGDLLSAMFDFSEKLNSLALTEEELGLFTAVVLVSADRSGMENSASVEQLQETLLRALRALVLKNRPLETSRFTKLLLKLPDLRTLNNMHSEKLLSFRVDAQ
REV-ERBα LBD, sequence (Q9Y618 2335-2356 partner limits assumed): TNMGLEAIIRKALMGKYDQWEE

The assay has as its target REV-ERBα LBD (Homo sapiens, UniProt P20393, DEL324-422). The experiment in a line: biochemical. Particulars: FRET assay; 6xHistag-REV-ERBα LBD with FITC-labeled SMRT corepressor peptide; read-out: REVERBα (Agonism of REV-ERBα, EC50). An outline of the steps:
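Serially diluted ligands were incubated 2 h at 4° C, in triplicate, with E. coli-expressed His-REV-ERBα LBD (281-614 Δ324-422 or 381-579; 4 nM), Tb-anti-His (1 nM) and FITC-labelled SMRT peptide (400 nM). EC50 came from sigmoidal fits of the 520/495 nm TR-FRET ratio.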
In general, pEC50 refers to the negative decadic logarithm of the EC50, by convention in mol/L. On to `CC(C)(C)Cn1cc([C@H](NS(=O)(=O)C2CC2)C(F)F)c2ccc(-c3c(C(F)(F)F)ccnc3C#N)cc21` [Compound 82, (S)—N-(1-(6-(2-cyano-4-(trifluoromethyl)pyridin-3-yl)-1-neopentyl-1H-indol-3-yl)-2,2-difluoroethyl)cyclopropanesulfonamide], for which the pEC50 is more than 7.00. With `CC(C)(C)Cn1cc([C@H](NS(=O)(=O)C2CC2)C(F)F)c2ccc(-c3ncccc3F)cc21` [Compound 83, (S)—N-(2,2-difluoro-1-(6-(3-fluoropyridin-2-yl)-1-neopentyl-1H-indol-3-yl)ethyl)cyclopropanesulfonamide] the figure was more than 7.00.

As for `CC(C)(C)Cn1cc([C@H](NS(=O)(=O)C2CC2)C(F)F)c2ccc(-c3ncc(F)cc3F)cc21` [Compound 84, (S)—N-(1-(6-(3,5-difluoropyridin-2-yl)-1-neopentyl-1H-indol-3-yl)-2,2-difluoroethyl)cyclopropanesulfonamide], the pEC50 is more than 7.00. With `CC(C)(C)Cn1cc([C@H](NS(=O)(=O)C2CC2)C(F)F)c2ccc(-c3ncccc3Cl)cc21` [Compound 85, (S)—N-(1-(6-(3-chloropyridin-2-yl)-1-neopentyl-1H-indol-3-yl)-2,2-difluoroethyl)cyclopropanesulfonamide] the figure was more than 7.00. The result for `CC(C)(C)Cn1cc([C@H](NS(=O)(=O)C2CC2)C(F)F)c2ccc(-c3cc(F)cnc3C#N)cc21` [Compound 86, (S)—N-(1-(6-(2-cyano-5-fluoropyridin-3-yl)-1-neopentyl-1H-indol-3-yl)-2,2-difluoroethyl)cyclopropanesulfonamide] reads more than 7.00; that for `CC(C)(C)Cn1cc([C@H](NS(=O)(=O)C2CC2)C(F)F)c2ccc(-c3cccnc3C(F)F)cc21` [Compound 87, (S)—N-(1-(6-(2-(difluoromethyl)pyridin-3-yl)-1-neopentyl-1H-indol-3-yl)-2,2-difluoroethyl)cyclopropanesulfonamide], more than 7.00; that for `CC(C)(C)Cn1cc([C@H](NS(=O)(=O)C2CC2)C(F)F)c2ccc(-c3ncc(F)cc3C#N)cc21` [Compound 88, (S)—N-(1-(6-(3-cyano-5-fluoropyridin-2-yl)-1-neopentyl-1H-indol-3-yl)-2,2-difluoroethyl)cyclopropanesulfonamide], more than 7.00.

As for `CC(C)(C)Cn1cc([C@H](NS(=O)(=O)C2CC2)C(F)F)c2cc(F)c(-c3ncccc3F)cc21` [Compound 89, (S)—N-(2,2-difluoro-1-(5-fluoro-6-(3-fluoropyridin-2-yl)-1-neopentyl-1H-indol-3-yl)ethyl)cyclopropanesulfonamide], the pEC50 was more than 7.00. With `CC(C)(C)Cn1cc([C@H](NS(=O)(=O)C2CC2)C(F)F)c2cc(F)c(-c3ncccc3Cl)cc21` [Compound 90, (S)—N-(1-(6-(3-chloropyridin-2-yl)-5-fluoro-1-neopentyl-1H-indol-3-yl)-2,2-difluoroethyl)cyclopropanesulfonamide] the figure was more than 7.00. Turning to `CC(C)(C)Cn1cc([C@H](NS(=O)(=O)C2CC2)C(F)F)c2cc(F)c(-c3ncc(F)cc3F)cc21` [Compound 91, (S)—N-(1-(6-(3,5-difluoropyridin-2-yl)-5-fluoro-1-neopentyl-1H-indol-3-yl)-2,2-difluoroethyl)cyclopropanesulfonamide], the pEC50 is more than 7.00.

Consider `CC(C)(C)Cn1cc([C@H](NS(=O)(=O)C2CC2)C(F)F)c2cc(F)c(-c3ncc(Cl)cc3F)cc21` [Compound 92, (S)—N-(1-(6-(5-chloro-3-fluoropyridin-2-yl)-5-fluoro-1-neopentyl-1H-indol-3-yl)-2,2-difluoroethyl)cyclopropanesulfonamide], for which the pEC50 was more than 7.00.

With `CC(C)(C)Cn1cc([C@H](NS(=O)(=O)C2CC2)C(F)F)c2cc(F)c(-c3ncc(F)cc3Cl)cc21` [Compound 93, (S)—N-(1-(6-(3-chloro-5-fluoropyridin-2-yl)-5-fluoro-1-neopentyl-1H-indol-3-yl)-2,2-difluoroethyl)cyclopropanesulfonamide], the pEC50 is more than 7.00.

With `CC(C)(C)Cn1cc([C@H](NS(=O)(=O)C2CC2)C(F)F)c2cc(F)c(-c3ncc(F)cc3C#N)cc21` [Compound 94, (S)—N-(1-(6-(3-cyano-5-fluoropyridin-2-yl)-5-fluoro-1-neopentyl-1H-indol-3-yl)-2,2-difluoroethyl)cyclopropanesulfonamide], the pEC50 was more than 7.00. The result for `Cc1ncc(F)cc1-c1cc2c(cc1F)c([C@H](NS(=O)(=O)C1CC1)C(F)F)cn2CC(C)(C)C` [Compound 95, (S)—N-(2,2-difluoro-1-(5-fluoro-6-(5-fluoro-2-methylpyridin-3-yl)-1-neopentyl-1H-indol-3-yl)ethyl)cyclopropanesulfonamide] reads more than 7.00.

Take `CC(C)(C)Cn1cc([C@H](NS(=O)(=O)C2CC2)C(F)F)c2cc(F)c(-c3cc(F)cnc3C#N)cc21` [Compound 96, (S)—N-(1-(6-(2-cyano-5-fluoropyridin-3-yl)-5-fluoro-1-neopentyl-1H-indol-3-yl)-2,2-difluoroethyl)cyclopropanesulfonamide]: the pEC50 was more than 7.00.

`CC(C)(C)Cn1cc([C@H](NS(=O)(=O)C2CC2)C(F)F)c2cc(F)c(-c3cccnc3C(F)F)cc21` [Compound 97, (S)—N-(1-(6-(2-(difluoromethyl)pyridin-3-yl)-5-fluoro-1-neopentyl-1H-indol-3-yl)-2,2-difluoroethyl)cyclopropanesulfonamide]: the pEC50 is more than 7.00.

As for `CC(C)(C)Cn1cc([C@H](NS(=O)(=O)C2CC2)C(F)F)c2cc(F)c(-c3c(C(F)(F)F)ccnc3C#N)cc21` [Compound 99, N-((1S)-1-(6-(2-cyano-4-(trifluoromethyl)pyridin-3-yl)-5-fluoro-1-neopentyl-1H-indol-3-yl)-2,2-difluoroethyl)cyclopropanesulfonamide], the pEC50 was more than 7.00. Take `CC(C)(C)Cn1cc([C@H](NS(=O)(=O)C2CC2)C(F)F)c2ccc(-c3ncccc3C(F)F)cc21` [Compound 100, (S)—N-(1-(6-(3-(difluoromethyl)pyridin-2-yl)-1-neopentyl-1H-indol-3-yl)-2,2-difluoroethyl)cyclopropanesulfonamide]: the pEC50 was more than 7.00. With `CC(C)(C)Cn1cc([C@H](NS(=O)(=O)C2CC2)C(F)F)c2ccc(-c3ncccc3C3CC3)cc21` [Compound 101, (S)—N-(1-(6-(3-cyclopropylpyridin-2-yl)-1-neopentyl-1H-indol-3-yl)-2,2-difluoroethyl)cyclopropanesulfonamide] the figure was more than 7.00. With `CC(C)(C)Cn1cc([C@H](NS(=O)(=O)C2CC2)C(F)F)c2ccc(-c3ccncc3C(F)(F)F)cc21` [Compound 102, (S)—N-(2,2-difluoro-1-(1-neopentyl-6-(3-(trifluoromethyl)pyridin-4-yl)-1H-indol-3-yl)ethyl)cyclopropanesulfonamide] the figure was more than 7.00; with `CC(C)(C)Cn1cc([C@H](NS(=O)(=O)C2CC2)C(F)F)c2ccc(-c3c(C#N)cccc3C(F)F)cc21` [Compound 103, (S)—N-(1-(6-(2-cyano-6-(difluoromethyl)phenyl)-1-neopentyl-1H-indol-3-yl)-2,2-difluoroethyl)cyclopropanesulfonamide], more than 7.00.

Values taken from patent US20260285846A1, “REV-ERB AGONISTS FOR TH17-MEDIATED INFLAMMATORY DISORDERS” (UNIVERSITY OF FLORID RESEARCH FOUNDATION, iNCORPORATED, priority 2021, published 2026).
